Here are results for 28 compounds from patent US9181183B2, “Prostaglandin D synthase inhibitory piperidine compounds” (Taiho Pharmaceutical Co., Ltd., priority 2010, dated 2015).

The assay concerns the target human H-PGDS (Homo sapiens, UniProt O60760). In words: Hematopoietic prostaglandin D synthase (H-PGDS) inhibiting action, [14C]PGH2 to PGD2 conversion, TLC radioassay. In kind it is biochemical. Particulars: compound 0.1 μM, inhibition rate relative to solvent control group, [14C] prostaglandin H2 10 μM, 25° C.; for inhibition at 0.1 µM: read-out: H-PGDS inh. (% at 0.1 μM). On the procedure:
The test was carried out according to the method of Urade, Y. et al. (J. Biol. Chem., 262, 3820-3825, (1987)). More specifically, a reaction mixture (49 μL) containing 100 mM Tris-HCl (pH 8.0), 1 mM reduced form glutathione, 0.1 mg/mL γ-globulin, human H-PGDS (q.s.), and a compound (0.1 μM) was preincubated at 25° C. for 5 minutes. A DMSO solution (final concentration: 1%) was added to the solvent control group. Subsequently, 1 μL of [^14C] prostaglandin H2 (final concentration: 10 μM) was added to start the reaction. One minute after the start of the reaction, 250 μL of a reaction stopper solution (diethylether/methanol/1M citric acid (30/4/1)) cooled with ice was added to stop the reaction. After the reaction was stopped, 50 μL of the upper layer portion (organic solvent phase) was applied to a TLC plate and developed at −20° C. for 45 minutes (developing solvent: diethylether/methanol/acetic acid (90/2/1)). After the TLC plate was dried and exposed to an imaging plate for 1 to 24 hours, the radioactivity corresponding to prostaglandin D2 (PGD2) was analyzed using an image analyzer (produced by Fujifilm Corporation). The area (%) occupied by the PGD2 band per lane and the inhibition rate (%) of each Example compound at 0.1 μM relative to the control group in each experiment were calculated.

human H-PGDS, sequence (O60760 whole entry): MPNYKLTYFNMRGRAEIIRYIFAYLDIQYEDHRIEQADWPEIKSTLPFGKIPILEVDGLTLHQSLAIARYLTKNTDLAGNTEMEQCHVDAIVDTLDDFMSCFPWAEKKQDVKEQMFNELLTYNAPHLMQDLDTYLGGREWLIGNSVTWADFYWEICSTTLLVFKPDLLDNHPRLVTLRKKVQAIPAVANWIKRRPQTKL

Consider `O=C(NC1CCN(C(=O)c2cccc(F)n2)CC1)N1CCC(=Cc2cc(F)ccc2F)CC1` [Example 66, 4-(2,5-difluorobenzylidene)-N-(1-(6-fluoropicolinoyl)piperidin-4-yl)piperidine-1-carboxamide], for which the inhibition at 0.1 µM came out at 68.6%.
Consider `O=C(Nc1ccon1)N1CCC(NC(=O)N2CCC(=Cc3cc(F)ccc3F)CC2)CC1` [Example 67, 4-(2,5-difluorobenzylidene)-N-(1-(isoxazol-3-ylcarbamoyl)piperidin-4-yl)piperidine-1-carboxamide], for which the inhibition at 0.1 µM turned out to be 51.7%.
Still for that read-out and setting: as for `O=C(Nc1ccc(OCc2ccccc2)cc1)N1CCC(=Cc2ccccn2)CC1` [Example 68, N-(4-(benzyloxy)phenyl)-4-(pyridin-2-ylmethylene)piperidine-1-carboxamide], the figure is 59.8%.
With `O=C(Nc1ccc(OCc2ccccc2)cc1)N1CCC(=Cc2cc(F)ccc2F)CC1` [Example 69, N-(4-(benzyloxy)phenyl)-4-(2,5-difluorobenzylidene)piperidine-1-carboxamide], the inhibition at 0.1 µM was found to be 51.3%.
Turning to `O=C(Nc1ccc(Oc2ncccn2)cc1)N1CCC(=Cc2cc(F)ccc2F)CC1` [Example 70, 4-(2,5-difluorobenzylidene)-N-(4-(pyrimidin-2-yloxy)phenyl)piperidine-1-carboxamide], the inhibition at 0.1 µM was 84.2%.
Consider `O=C(Nc1ccc(Nc2ccccc2)cc1)N1CCC(=Cc2ccccn2)CC1` [Example 71, N-(4-(phenylamino)phenyl)-4-(pyridin-2-ylmethylene)piperidine-1-carboxamide], for which the inhibition at 0.1 µM amounted to 62.9%.
For `O=C(Nc1ccc(Nc2ccccc2)cc1)N1CCC(=Cc2cc(F)ccc2F)CC1` [Example 72, 4-(2,5-difluorobenzylidene)-N-(4-(phenylamino)phenyl)piperidine-1-carboxamide], the inhibition at 0.1 µM stood at 68.7%.
In the case of `O=C(Nc1ccccc1)Nc1ccc(NC(=O)N2CCC(=Cc3cc(F)ccc3F)CC2)cc1` [Example 73, 4-(2,5-difluorobenzylidene)-N-(4-(3-phenylureido)phenyl)piperidine-1-carboxamide], the inhibition at 0.1 µM amounted to 71%.
For `O=C(Nc1ccc(NC(=O)N2CCC(=Cc3cc(F)ccc3F)CC2)cc1)c1ccccn1` [Example 74, N-(4-(4-(2,5-difluorobenzylidene)piperidine-1-carboxamido)phenyl)picolinamide], the inhibition at 0.1 µM came to 70.9%.
On to `O=C(Nc1ccc(NC(=O)N2CCC(=Cc3cc(F)ccc3F)CC2)cc1)c1cscn1` [Example 75, N-(4-(4-(2,5-difluorobenzylidene)piperidine-1-carboxamido)phenyl)thiazole-4-carboxamide], for which the inhibition at 0.1 µM is 71.2%.
In the case of `O=C(Nc1ccc(NC(=O)N2CCC(=Cc3cc(F)ccc3F)CC2)cc1)c1ccsc1` [Example 76, 4-(2,5-difluorobenzylidene)-N-(4-(thiophene-3-carboxamido)phenyl)piperidine-1-carboxamide], the inhibition at 0.1 µM stood at 79.4%.
In the case of `CC(C)C(=O)Nc1ccc(NC(=O)N2CCC(=Cc3cc(F)ccc3F)CC2)cc1` [Example 77, 4-(2,5-difluorobenzylidene)-N-(4-isobutyramidophenyl)piperidine-1-carboxamide], the inhibition at 0.1 µM turned out to be 68.1%.
Consider `COC(=O)c1ccccc1CNC(=O)N1CCC(=Cc2cc(F)ccc2F)CC1` [Example 78, Methyl 2-((4-(2,5-difluorobenzylidene)piperidine-1-carboxamido)methyl)benzoate], for which the inhibition at 0.1 µM was 48.3%.
Consider `O=C(Nc1ccc(NC(=O)N2CCC(=Cc3cc(F)ccc3F)CC2)cn1)c1ccccn1` [Example 79, N-(5-(4-(2,5-difluorobenzylidene)piperidine-1-carboxamido)pyridin-2-yl)picolinamide], for which the inhibition at 0.1 µM is 56.8%.
For the compound `O=C(Nc1ccc(NC(=O)N2CCC(=Cc3cc(F)ccc3F)CC2)cn1)c1cscn1` [Example 80, N-(5-(4-(2,5-difluorobenzylidene)piperidine-1-carboxamido)pyridin-2-yl)thiazole-4-carboxamide], the inhibition at 0.1 µM was 66%.
As for `O=C(Nc1ncc(Cn2cncn2)s1)N1CCC(=Cc2cc(F)ccc2F)CC1` [Example 81, N-(5-((1H-1,2,4-triazol-1-yl)methyl)thiazol-2-yl)-4-(2,5-difluorobenzylidene)piperidine-1-carboxamide], the inhibition at 0.1 µM came out at 72.8%.
As for `Cc1nccn1Cc1cnc(NC(=O)N2CCC(=Cc3cc(F)ccc3F)CC2)s1` [Example 82, 4-(2,5-difluorobenzylidene)-N-(5-((2-methyl-1H-imidazol-1-yl)methyl)thiazol-2-yl)piperidine-1-carboxamide], the inhibition at 0.1 µM was 82.7%.
Still for that read-out and setting: in the case of `Cc1nccn1Cc1cnc(NC(=O)N2CCC(=Cc3ccccn3)CC2)s1` [Example 83, N-(5-((2-methyl-1H-imidazol-1-yl)methyl)thiazol-2-yl)-4-(pyridin-2-ylmethylene)piperidine-1-carboxamide] it was 41.6%; in that of `O=C(Nc1ncc(CN2CCOCC2)s1)N1CCC(=Cc2cc(F)ccc2F)CC1` [Example 84, 4-(2,5-difluorobenzylidene)-N-(5-(morpholinomethyl)thiazol-2-yl)piperidine-1-carboxamide], 78.5%; in that of `O=C(Nc1cnc2ccccc2c1)N1CCC(=Cc2ccccn2)CC1` [Example 85, 4-(pyridin-2-ylmethylene)-N-(quinolin-3-yl)piperidine-1-carboxamide], 35%.
For “N-(4-(2-(4-(pyridin-2-ylmethylene)piperidine-1-carboxamido)thiazol-5-yl)phenyl)morpholin-1-yl-carboxamide [Example 25]”, the “H-PGDS inh. (% at 0.1 μM)” value is recorded as 56.4%.
Still for that read-out and setting: as for “N-(4-(4-(morpholin-1-yl-carbonyl)piperidin-1-yl)phenyl)-2-(4-(pyridin-2-ylmethylene)piperidine-1-carboxamido)thiazole-5-carboxamide [Example 15]”, the figure is 68.6%; as for “N-(4-(morpholin-1-yl-carbonyl)phenyl)-2-(4-(pyridin-2-ylmethylene)piperidine-1-carboxamido)thiazole-5-carboxamide [Example 19]”, 55.1%.
Consider “N-(5-(4-(cyclopropylcarboxamido)phenyl)thiazol-2-yl)-4-(pyridin-2-ylmethylene)piperidine-1-carboxamide [Example 21]”, for which the “H-PGDS inh. (% at 0.1 μM)” value is reported as 58.7%.
As for “N-(5-(morpholin-1-yl-carbonyl)thiazol-2-yl)-4-(pyridin-2-ylmethylene)piperidine-1-carboxamide [Example 13]”, the “H-PGDS inh. (% at 0.1 μM)” value is 48.3%.
On to “N-(6-(1H-1,2,3-triazol-1-ylmethyl)acetamide)benzo[d]thiazol-2-yl)-4-(pyridin-2-ylmethylene)-piperidine-1-carboxamide [Example 12]”, for which the “H-PGDS inh. (% at 0.1 μM)” value is reported as 52.5%.
“N-(6-(4-morpholin-1-yl-carbonylphenyl)-benzo[d]thiazol-2-yl)-4-(pyridin-2-ylmethylene)-piperidine-1-carboxamide [Example 2]”: the “H-PGDS inh. (% at 0.1 μM)” value amounted to 64.4%.
Consider “Phenyl 4-(4-(2,5-difluorobenzylidene)piperidine-1-carboxamido) piperidine-1-carboxylate [Example 39]”, for which the “H-PGDS inh. (% at 0.1 μM)” value is 62.9%.
